Data from paper PMC10587081, “Biochemical and structural basis of mercuric reductase, GbsMerA, from Gelidibacter salicanalis PAMC21136” (Scientific Reports, 2023).
One block for each molecule: values may come before it.

Assays:
[1] = target: T1, GbsMerA (Gelidibacter salicanalis, UniProt A0A934NG65); experiment: X-ray crystal structure; type: binding
T1 construct: gene JEM65_00875; full length, 449 aa, pET32a(+) (BamHI/XhoI), N-terminal His6 tag and vector tag cleaved with enterokinase, E. coli BL21, SEC, homodimer with non-covalent FAD; no NmerA domain and no C-terminal Cys-Cys motif; primers encode N-terminus MKEYDV and C-terminus IPHML
T1 sequence (A0A934NG65 1-448): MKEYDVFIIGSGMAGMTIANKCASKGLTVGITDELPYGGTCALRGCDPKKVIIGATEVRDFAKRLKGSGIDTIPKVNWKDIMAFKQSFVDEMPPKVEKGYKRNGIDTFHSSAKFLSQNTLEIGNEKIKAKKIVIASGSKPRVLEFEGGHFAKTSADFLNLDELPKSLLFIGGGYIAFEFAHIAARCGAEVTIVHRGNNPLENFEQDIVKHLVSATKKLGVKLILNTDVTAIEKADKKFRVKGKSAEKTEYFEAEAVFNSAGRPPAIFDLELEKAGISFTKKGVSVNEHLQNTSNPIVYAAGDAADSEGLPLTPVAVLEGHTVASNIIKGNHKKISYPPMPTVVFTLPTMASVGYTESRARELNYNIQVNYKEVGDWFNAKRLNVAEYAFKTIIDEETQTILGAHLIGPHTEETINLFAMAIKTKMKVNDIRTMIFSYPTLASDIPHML

[2] = target: mercuric reductase GbsMerA from Gelidibacter salicanalis PAMC21136 (Gelidibacter salicanalis PAMC21136); experiment: crystal structure; sitting drop vapor diffusion at 22 °C; GbsMerA 35 mg/mL with 1.6 M sodium phosphate monobasic/0.4 M potassium phosphate dibasic, 0.1 M sodium phosphate dibasic/citric acid pH 4.2; homodimer in the asymmetric unit

Molecule: Cc1cc2nc3c(=O)[nH]c(=O)nc-3n(C[C@H](O)[C@H](O)[C@H](O)COP(=O)(O)OP(=O)(O)OC[C@H]3O[C@@H](n4cnc5c(N)ncnc54)[C@H](O)[C@@H]3O)c2cc1C [FAD]
X-ray crystal structure ([1]; 2.6 Å, non-covalently bound FAD in FAD-binding domain, crystallised at pH 4.2 (phosphate/citrate)): Non-covalently bound FAD is located in the central region of the FAD-binding domain

Molecule: NC(=O)C1=CN([C@@H]2O[C@H](COP(=O)(O)OP(=O)(O)OC[C@H]3O[C@@H](n4cnc5c(N)ncnc54)[C@H](OP(=O)(O)O)[C@@H]3O)[C@@H](O)[C@H]2O)C=CC1 [NADPH]
X-ray crystal structure ([1]; complex with FAD and NADPH, bicine/Trizma pH 8.5, re-face of the FAD isoalloxazine ring): Furthermore, we determined the GbsMerA–NADPH complex structure.

stoichiometry N [2]: 2
Molecule: mercuric reductase GbsMerA from Gelidibacter salicanalis PAMC21136 (enzyme)
